Measurements taken from ChEMBL document CHEMBL5143670, “Discovery and preclinical profile of LX-039, a novel indole-based oral selective estrogen receptor degrader (SERD)” (Bioorg Med Chem Lett, 2022).
Blank lines part the entries; values can stand above or below the compound they belong to.

Experiments:
[1] = In vivo antagonist activity at estrogen receptor in immature CD-IGS rat assessed as inhibition of estradiol-induced uterine growth by measuring uterine wet weight pretreated with compound for 15 mins followed by estradiol addition administered orally for three days and measured on day 4 relative to control; assay type: functional; conditions: route po; time 4 day
[2] = AUC (0 to 24 hrs) in CD-1 mouse at 2.5 mg/kg, po; assay type: ADME, organism-based; set-up: time < 24 hr, dose 2.5 mg/kg, route po; conditions: in vivo; for AUC(0-t) at 24 h: CD-1, mouse
[3] = Binding affinity to estrogen receptor (unknown origin); set-up: species or system Homo sapiens
[4] = Cmax in CD-1 mouse at 2.5 mg/kg, po; assay type: ADME, organism-based; set-up: dose 2.5 mg/kg, route po; conditions: in vivo
[5] = Toxicity in mouse xenografted with human MCF7 cells assessed as body weight change at 20 mg/kg, po administered once daily for 21 days; assay type: organism-based; conditions: in vivo, 504 h, time 21 day
[6] = Induction of estrogen receptor degradation in human MCF7 cells incubated for 4 hrs by in-cell Western assay; assay type: cell-based; conditions: MCF7, 4 h
MCF7 [7] = experiment: Antiproliferative activity against human MCF7 cells measured after 5 days by CellTiter-GLo luminescent assay; assay type: functional, cell-based; conditions: MCF7, 120 h
[8] = Oral bioavailability in CD-1 mouse at 2.5 mg/kg; assay type: ADME, organism-based; conditions: in vivo; for bioavailability: CD-1, mouse
[9] = Volume of distribution in iv dosed CD-1 mouse; assay type: ADME, organism-based; conditions: in vivo
[10] = Clearance in iv dosed CD-1 mouse; assay type: ADME, organism-based; conditions: in vivo
MCF7 [11] = experiment: Antitumor activity against tamoxifen-resistant human MCF7 cells xenografted in mouse assessed as tumor growth inhibition at 3 mg, po dosed once daily for 21 days relative to control; assay type: functional; conditions: time 21 day
Cytochrome P450 2C9 = Cytochrome P450 2C9 (Homo sapiens, UniProt P11712); experiment: Inhibition of CYP2C9 (unknown origin); assay type: ADME
Cytochrome P450 2C9, sequence (P11712 whole entry): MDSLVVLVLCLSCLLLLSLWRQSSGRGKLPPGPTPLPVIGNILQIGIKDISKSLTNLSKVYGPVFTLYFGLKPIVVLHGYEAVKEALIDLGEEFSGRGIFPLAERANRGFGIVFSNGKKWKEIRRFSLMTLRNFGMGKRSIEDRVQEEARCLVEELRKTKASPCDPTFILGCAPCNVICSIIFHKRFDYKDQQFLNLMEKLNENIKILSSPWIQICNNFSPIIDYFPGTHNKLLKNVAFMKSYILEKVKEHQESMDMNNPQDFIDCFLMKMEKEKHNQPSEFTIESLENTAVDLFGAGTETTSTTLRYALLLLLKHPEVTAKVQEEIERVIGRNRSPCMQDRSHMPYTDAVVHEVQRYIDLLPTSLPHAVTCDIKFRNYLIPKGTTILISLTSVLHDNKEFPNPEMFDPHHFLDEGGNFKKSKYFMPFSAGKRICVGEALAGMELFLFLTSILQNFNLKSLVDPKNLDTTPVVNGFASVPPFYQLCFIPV

[12] = Protein binding in human plasma assessed as free fraction; assay type: ADME, cell-free
[13] = C0 in Sprague-Dawley rat at 1 mg/kg, iv; assay type: ADME, organism-based; conditions: in vivo
[14] = Permeability of the compound from apical to basolateral side in human Caco-2 cells; assay type: ADME, cell-based; conditions: read-out: permeability
[15] = Permeability of the compound from basolateral to apical side in human Caco-2 cells; assay type: ADME, cell-based; conditions: read-out: permeability
[16] = AUC (0 to 24 hrs) in Beagle dog at 1 mg/kg, iv; assay type: ADME, organism-based, Canis lupus familiaris; set-up: time < 24 hr, dose 1 mg/kg, route iv; conditions: in vivo
Cytochrome P450 1A2 = target: T1, Cytochrome P450 1A2 (Homo sapiens, UniProt P05177); experiment: Inhibition of CYP1A2 (unknown origin); assay type: ADME
T1 sequence (P05177 whole entry): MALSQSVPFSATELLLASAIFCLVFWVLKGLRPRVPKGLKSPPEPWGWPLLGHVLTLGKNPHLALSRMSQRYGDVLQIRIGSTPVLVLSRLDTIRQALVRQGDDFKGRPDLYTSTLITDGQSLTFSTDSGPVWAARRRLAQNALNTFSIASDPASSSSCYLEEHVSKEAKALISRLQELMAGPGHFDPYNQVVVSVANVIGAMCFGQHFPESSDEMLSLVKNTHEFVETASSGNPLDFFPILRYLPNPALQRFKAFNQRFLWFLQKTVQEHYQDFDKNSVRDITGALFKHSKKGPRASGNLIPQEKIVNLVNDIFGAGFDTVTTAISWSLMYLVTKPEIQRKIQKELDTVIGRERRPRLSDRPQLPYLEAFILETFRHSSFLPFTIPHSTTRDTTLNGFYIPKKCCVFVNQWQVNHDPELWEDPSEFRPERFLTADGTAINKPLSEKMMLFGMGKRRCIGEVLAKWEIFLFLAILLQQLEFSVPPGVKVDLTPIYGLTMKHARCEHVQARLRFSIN

[17] = C0 in Beagle dog at 1 mg/kg, iv; assay type: ADME, organism-based, Canis lupus familiaris; conditions: in vivo
Cytochrome P450 2C19 = Cytochrome P450 2C19 (Homo sapiens, UniProt P33261); experiment: Inhibition of CYP2C19 (unknown origin); assay type: ADME
Cytochrome P450 2C19, sequence (P33261 whole entry): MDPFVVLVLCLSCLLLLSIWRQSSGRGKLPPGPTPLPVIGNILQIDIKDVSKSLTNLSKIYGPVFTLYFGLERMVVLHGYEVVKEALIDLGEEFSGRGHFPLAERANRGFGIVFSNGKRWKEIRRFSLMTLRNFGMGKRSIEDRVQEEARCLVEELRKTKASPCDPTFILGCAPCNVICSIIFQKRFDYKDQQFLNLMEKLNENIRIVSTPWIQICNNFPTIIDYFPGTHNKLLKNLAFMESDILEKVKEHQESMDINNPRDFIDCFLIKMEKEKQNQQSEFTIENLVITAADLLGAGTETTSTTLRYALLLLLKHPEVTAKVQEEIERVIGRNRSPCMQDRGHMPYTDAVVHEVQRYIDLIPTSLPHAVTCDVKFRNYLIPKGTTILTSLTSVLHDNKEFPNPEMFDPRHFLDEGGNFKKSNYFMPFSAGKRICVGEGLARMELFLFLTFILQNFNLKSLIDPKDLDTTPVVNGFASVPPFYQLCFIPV

Cytochrome P450 3A4 = Cytochrome P450 3A4 (Homo sapiens, UniProt P08684); experiment: Inhibition of CYP3A4 (unknown origin) using testosterone as substrate; assay type: ADME
Cytochrome P450 3A4, sequence (P08684 whole entry): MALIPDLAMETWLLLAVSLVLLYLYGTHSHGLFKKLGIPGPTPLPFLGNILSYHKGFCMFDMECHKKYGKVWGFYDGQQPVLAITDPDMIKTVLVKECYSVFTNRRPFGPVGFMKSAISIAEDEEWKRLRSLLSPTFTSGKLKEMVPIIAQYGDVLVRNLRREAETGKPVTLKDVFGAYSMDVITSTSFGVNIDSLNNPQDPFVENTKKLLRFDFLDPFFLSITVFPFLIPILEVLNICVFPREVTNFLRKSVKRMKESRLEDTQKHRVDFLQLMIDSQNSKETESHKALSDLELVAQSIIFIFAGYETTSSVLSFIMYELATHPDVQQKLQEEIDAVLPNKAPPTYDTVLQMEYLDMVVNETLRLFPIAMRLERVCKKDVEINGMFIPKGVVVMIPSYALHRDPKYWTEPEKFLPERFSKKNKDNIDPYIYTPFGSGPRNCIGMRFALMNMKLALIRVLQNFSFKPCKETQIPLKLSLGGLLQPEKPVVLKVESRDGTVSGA

[18] = Genotoxicity in Salmonella typhimurium by Ames test; assay type: toxicity; conditions: salmonella enterica subsp. enterica serovar typhimurium
[19] = Metabolic stability in human hepatocytes assessed as intrinsic clearance measured per million cells; assay type: ADME, cell-based, Hepatocyte; conditions: read-out: CLH
[20] = Metabolic stability in dog hepatocytes assessed as intrinsic clearance measured per million cells; assay type: ADME, cell-based, Canis lupus familiaris, Hepatocyte; conditions: read-out: CLH
[21] = Volume of distribution in iv dosed Sprague-Dawley rat; assay type: ADME, organism-based; conditions: in vivo
[22] = Toxicity in mouse xenografted with human MCF7 cells assessed as change in body weight at 6.5 to 60 mg/kg, po administered once daily for 21 days; assay type: organism-based; conditions: in vivo, 504 h, dose 6.5-60 mg/kg, time 21 day
[23] = Oral bioavailability in Beagle dog at 1 mg/kg; assay type: ADME, organism-based, Canis lupus familiaris; conditions: in vivo
[24] = AUC (0 to 24 hrs) in Sprague-Dawley rat at 1 mg/kg, iv; assay type: ADME, organism-based; set-up: time < 24 hr, dose 1 mg/kg, route iv; conditions: in vivo
[25] = Clearance in iv dosed Sprague-Dawley rat; assay type: ADME, organism-based; conditions: in vivo
[26] = AUC (0 to 24 hrs) in Beagle dog at 1 mg/kg, po; assay type: ADME, organism-based, Canis lupus familiaris; set-up: time < 24 hr, dose 1 mg/kg, route po; conditions: in vivo
MCF7 [27] = experiment: Antitumor activity against tamoxifen-resistant human MCF7 cells xenografted in mouse assessed as tumor growth inhibition at 200 mg/kg, po dosed once daily for 21 days relative to control; assay type: functional; conditions: MCF7, 504 h, time 21 day, read-out: TGI
[28] = Efflux ratio of apparent permeability from basolateral to apical side over apical to basolateral side in human Caco-2 cells; assay type: ADME, cell-based
Cytochrome P450 2D6 = Cytochrome P450 2D6 (Homo sapiens, UniProt P10635); experiment: Inhibition of CYP2D6 (unknown origin); assay type: ADME
Cytochrome P450 2D6, sequence (P10635 whole entry): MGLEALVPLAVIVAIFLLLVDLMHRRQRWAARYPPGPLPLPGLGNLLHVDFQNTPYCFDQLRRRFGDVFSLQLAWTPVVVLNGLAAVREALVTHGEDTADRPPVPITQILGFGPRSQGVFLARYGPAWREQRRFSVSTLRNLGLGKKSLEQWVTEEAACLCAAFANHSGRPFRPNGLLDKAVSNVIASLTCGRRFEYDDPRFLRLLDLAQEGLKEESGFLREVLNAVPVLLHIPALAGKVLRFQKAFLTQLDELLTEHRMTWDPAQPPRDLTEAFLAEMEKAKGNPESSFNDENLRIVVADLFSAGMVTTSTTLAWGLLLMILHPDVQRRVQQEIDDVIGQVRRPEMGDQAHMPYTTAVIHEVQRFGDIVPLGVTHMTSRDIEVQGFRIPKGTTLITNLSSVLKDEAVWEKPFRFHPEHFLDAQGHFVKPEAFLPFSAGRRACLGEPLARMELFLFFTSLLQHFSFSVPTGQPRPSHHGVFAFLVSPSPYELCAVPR

MCF7 [29] = experiment: Antitumor activity against human MCF7 cells xenografted in mouse assessed as tumor shrinkage by measuring tumor growth inhibition at 60 mg/kg, po administered once daily for 21 days; assay type: functional; conditions: MCF7, 504 h, time 21 day, read-out: TGI
[30] = Volume of distribution in iv dosed Beagle dog; assay type: ADME, organism-based, Canis lupus familiaris; conditions: in vivo
[31] = Clearance in iv dosed Beagle dog; assay type: ADME, organism-based, Canis lupus familiaris; conditions: in vivo
[32] = Toxicity in Sprague-Dawley rat assessed as adverse effects at 500 mg/kg, po; assay type: organism-based; conditions: in vivo
[33] = Toxicity in Beagle dog assessed as adverse effects at 1000 mg/kg, po; assay type: organism-based, Canis lupus familiaris; conditions: in vivo
[34] = Cmax in Beagle dog at 1 mg/kg, po; assay type: ADME, organism-based, Canis lupus familiaris; set-up: dose 1 mg/kg, route po; conditions: in vivo
[35] = Metabolic stability in mouse hepatocyte assessed as intrinsic clearance measured per 10^6 cells; assay type: ADME, cell-based; conditions: hepatocytes, read-out: CLH
[36] = AUC (0 to 24 hrs) in Sprague-Dawley rat at 1 mg/kg, po; assay type: ADME, organism-based; set-up: time < 24 hr, dose 1 mg/kg, route po; conditions: in vivo
MCF7 [37] = experiment: Antitumor activity against human MCF7 cells xenografted in mouse assessed as tumor growth inhibition when administered orally once daily for 21 days; assay type: functional, cell-based; conditions: dose 6.5-60 mg/kg, route po, time 21.0 day, DDE = dose-dependent effect
[38] = Oral bioavailability in Sprague-Dawley rat at 1 mg/kg; assay type: ADME, organism-based; conditions: in vivo
[39] = Cmax in Sprague-Dawley rat at 1 mg/kg, po; assay type: ADME, organism-based; set-up: dose 1 mg/kg, route po; conditions: in vivo
[40] = Metabolic stability in rat hepatocytes assessed as intrinsic clearance measured per million cells; assay type: ADME, cell-based, Hepatocyte; conditions: read-out: CLH
MCF7 [41] = experiment: Antitumor activity against human MCF7 cells xenografted in mouse assessed as tumor growth inhibition at 20 mg/kg, po administered once daily for 21 days; assay type: functional; conditions: MCF7, 504 h, time 21 day, read-out: TGI

Compound: CC/C(=C(/c1ccc(/C=C/C(=O)O)cc1)c1ccc2[nH]ncc2c1)c1ccc(F)cc1Cl [BRILANESTRANT]
inhibition (INH) [1]: 65%

Compound: CC/C(=C(/c1ccc(/C=C/C(=O)O)cc1)c1[nH]c2ccccc2c1Cl)c1ccsc1C#N
IC50 [3]: 0.18 nM
EC50 [6]: 2.25 nM
IC50 (MCF7 [7]): 7.56 nM

Compound: CC/C(=C(/c1ccc(/C=C/C(=O)O)cc1)c1[nH]c2ccccc2c1C)c1ccc(F)cc1Cl
EC50 [6]: 1.26 nM
IC50 (MCF7 [7]): 4.78 nM

Compound: CC/C(=C(/c1ccc(/C=C/C(=O)O)cc1)c1[nH]c2ccccc2c1C#N)c1ccc(F)cc1Cl
AUC(0-t) at 24 h [2]: 0.049 µM·h
IC50 [3]: 0.23 nM
Cmax [4]: 35 nM
EC50 [6]: 2.6 nM
IC50 (MCF7 [7]): 4.85 nM
bioavailability [8]: 6.21%
Vd [9]: 4.28 L/kg
clearance [10]: 104 mL/min/kg

Compound: CC/C(=C(/c1ccc(/C=C/C(=O)O)cc1)c1cc2ccccc2[nH]1)c1ccc(F)cc1Cl
IC50 [3]: 1.6 nM
EC50 [6]: 39 nM
IC50 (MCF7 [7]): 21 nM

Compound: C[C@]12CC[C@@H]3c4ccc(O)cc4C[C@@H](CCCCCCCCC[S+]([O-])CCCC(F)(F)C(F)(F)F)[C@H]3[C@@H]1CC[C@@H]2O (stereo not given in full) [FULVESTRANT]
TGI (MCF7 [11]): 66%

Compound: CC/C(=C(/c1ccc(/C=C/C(=O)O)cc1)c1[nH]c2ccccc2c1Br)c1ccc(F)cc1Cl
IC50 [3]: 0.66 nM
EC50 [6]: 2.44 nM
IC50 (MCF7 [7]): 8.53 nM

Compound: CC/C(=C(/c1ccc(/C=C/C(=O)O)cc1)c1[nH]c2ccccc2c1Cl)c1cc(Cl)sc1Cl
IC50 [3]: 1.79 nM
EC50 [6]: 5.13 nM
IC50 (MCF7 [7]): 20 nM

More lines, main results first:

AUC(0-t) at 24 h [2]: 0.883 µM·h
IC50 [3]: 0.23 nM
Cmax [4]: 246 nM
EC50 [6]: 0.735 nM
IC50 (MCF7 [7]): 0.97 nM
bioavailability [8]: 33.7%
Vd [9]: 4.48 L/kg
clearance [10]: 29.7 mL/min/kg
Compound: CC/C(=C(/c1ccc(/C=C/C(=O)O)cc1)c1[nH]c2ccccc2c1Cl)c1ccc(Cl)cc1C#N
Activity [5]: Non-Toxic

IC50 [3]: 0.82 nM
EC50 [6]: 9.95 nM
IC50 (MCF7 [7]): 13 nM
Compound: CC/C(=C(/c1ccc(/C=C/C(=O)O)cc1)c1[nH]c2ccccc2c1Cl)c1ccccc1C(F)(F)F

IC50 (Cytochrome P450 2C9): 5100 nM
AUC ([2]; mouse, 24 h): 15.329 µM·h
fraction unbound [12]: 0.051
C0 [13]: 2610 nM
Papp A→B [14]: 0.94 ×10⁻⁶ cm/s
IC50 [3]: 0.99 nM
Papp B→A [15]: 1.25 ×10⁻⁶ cm/s
AUC(0-t) at 24 h [16]: 43.8 µM·h
IC50 (Cytochrome P450 1A2): 7700 nM
C0 [17]: 12800 nM
IC50 (Cytochrome P450 2C19): 10100 nM
IC50 (Cytochrome P450 3A4): 7000 nM
Cmax [4]: 1870 nM
hepatocyte CLint [19]: 15.2 µL/min/1e6 cells
hepatocyte CLint [20]: 8.6 µL/min/1e6 cells
Vd [21]: 2 L/kg
EC50 [6]: 2.29 nM
bioavailability [23]: 55%
IC50 (MCF7 [7]): 3.76 nM
AUC(0-t) at 24 h [24]: 4.82 µM·h
clearance [25]: 7.7 mL/min/kg
F ([8]; mouse, po, 2.5 mg/kg): 60.1%
Vd [9]: 0.5 L/kg
AUC(0-t) at 24 h [26]: 24.2 µM·h
efflux ratio [28]: 1.32
IC50 (Cytochrome P450 2D6): 14300 nM
Vd [30]: 0.42 L/kg
clearance [31]: 0.84 mL/min/kg
Cmax [34]: 2550 nM
hepatocyte CLint [35]: 9.8 µL/min/1e6 cells
AUC(0-t) at 24 h [36]: 2.7 µM·h
bioavailability [38]: 56%
Cmax [39]: 381 nM
hepatocyte CLint [40]: 11.1 µL/min/1e6 cells
Compound: CC/C(=C(/c1ccc(/C=C/C(=O)O)cc1)c1[nH]c2ccccc2c1Cl)c1ccc(F)cc1Cl
Activity [18]: Non-Toxic
inhibition (INH) [1]: 94%
Activity [22]: Non-Toxic
Activity [5]: Non-Toxic
inhibition in vivo at 200 mg/kg (MCF7 [27]): 91%
inhibition in vivo at 60 mg/kg (MCF7 [29]): 113%
Activity [32]: Non-Toxic
Activity [33]: Non-Toxic
inhibition (MCF7 [37]): Dde
inhibition in vivo at 20 mg/kg (MCF7 [41]): 104%
